Experimental data: patent publication EP0937460A2, “Use of an antidiarrheal for the manufacture of a medicament for the treatment of inflammatory conditions” (Adolor Corporation, priority 1994, dated 1995)

How the values were obtained:
[1] = test system: TNF production; assay: Inhibition of LPS-stimulated TNF production in the human monocytic cell line THP-1 (ELISA); assay type: cell-based; settings: for TNF LEVEL % Control (LPS alone); Ave. ± S.D. / activity at 10 µM: THP-1 cells, DRUG [10 µM], LPS 1 µg/mL; for activity at 10 µM / inhibition at 10 µM: Homo sapiens; for activity at 10 µM: 6 h, read-out: TNF LEVEL % Control (LPS alone), Ave. ± S.D.; for effectiveness against LPS-stimulated TNF production (in words) / inhibition at 10 µM: LPS-stimulated THP-1 cells; for effectiveness against LPS-stimulated TNF production (in words): 10 µM; for inhibition at 10 µM: drug 10 µM, read-out: inhibition of TNF production
Method: Cultures were maintained by the addition of fresh growth medium to a T-75 or T-150 flask of cells in suspension, or by pelleting the cells and re-suspending them in the appropriate volume of fresh medium. Maximum cell density was 1.0 x 10^6 cells per mL and cultures were seeded at a minimum density of 0.2 x 10^6 cells per ml.
THP-1 cells were plated into 24-well plates at a density of 1.0 x 10^6 cells per mL in 0.5 mL medium per well. […] For measurement of IL-1α and IL-1β production, THP-1 cells were incubated with 500 ng/mL or 50 ng/mL LPS and incubated for 16 hours. Levels of secreted cytokine were measured in cell supernatants as for TNF. Cell-associated species were measured in cell lysates which were prepared by repetitive freeze-thawing of cells. For in vitro screening, drugs at 10 µM concentration were co-administered with LPS. […] Drug effects on cell viability were assessed by the MTT assay. […] Water-soluble drugs were dissolved in aqueous solutions such as RPMI or deionized H20. The final concentration of DMSO in the incubation medium was at or below 0.01% and that of ethanol was at or below 0. 1%. The effect on cell viability was evaluated by the MTT assay.

[2] = test system: TNF production; assay: Inhibition of LPS-stimulated TNF production in the mouse macrophage line RAW 264.7 (ELISA); assay type: cell-based; settings: RAW cells; for activity at 10 µM: RAW264.7, 6 h, read-out: TNF LEVEL % Control (LPS alone), Ave. ± S.D.; for activity at 10 µM / TNF LEVEL % Control (LPS alone); Ave. ± S.D.: DRUG [10 µM], LPS at 10 ng/mL; for inhibition at 10 µM: LPS 10 ng/mL, read-out: inhibition of LPS-stimulated TNF secretion; for inhibition at 10 µM / effectiveness against LPS-stimulated TNF production (in words): drug 10 µM
Method: Cells were passaged at confluence by scraping and routinely plated at a density of 0.25 x 10^6 and 0.5 x 10^6 cells per T-75 and T-150, respectively.
Typically, RAW cells were plated at 0.25 x 10^6 cells per well of a 24-well plate, in 0.5 mL media per well on the day prior to experimentation. […] 1%. Drugs were co-administered with the stimulant, LPS. After a 6-hr incubation period with LPS ± drug (n = 3-4), the media from the experimental wells was harvested, the cells were removed by microcentrifugation, and the media assayed for TNF by ELISA. Drugs were screened at 10 µM for their ability to alter TNF production by cells stimulated with 1 µg/mL or 10 ng/mL LPS. Dexamethasone, an anti-inflammatory corticosteroid, served as the reference for inhibition of the LPS response.

SMILES: COc1ccc(CCN(C)CCC[C@](C#N)(c2ccc(OC)c(OC)c2)C(C)C)cc1OC [(+)-Verapamil, (+)-verapamil]
- TNF LEVEL % Control (LPS alone); Ave. ± S.D. [1]: 51±2 % Control

SMILES: COc1ccc(CCN(C)CCC[C@@](C#N)(c2ccc(OC)c(OC)c2)C(C)C)cc1OC [(-)-Verapamil, (-)-verapamil]
- TNF LEVEL % Control (LPS alone); Ave. ± S.D. [1]: 53±3 % Control

SMILES: CC(C)COCC(CN(Cc1ccccc1)c1ccccc1)N1CCCC1 (stereo not drawn) [Bepridil, 1-Pyrrolidieneethanamine, b-[(2-methylpropoxy)methyl]-N-phenyl-N-(phenylmethyl)]
- activity at 10 µM [1]: 77 ± 9%
- activity at 10 µM ([2]; Mus musculus): 40 ± 4%

SMILES: COc1ccc([C@@H]2Sc3ccccc3N(CCN(C)C)C(=O)[C@@H]2OC(C)=O)cc1 [Diltiazem, 1,5-Benzothiazepin-4(5H)-one, 3-(acetyloxy)-5-[2-(dimethylamino)ethyl]-2,3-dihydro-2-(4-methoxyphenyl)-, (2S-cis)-]
- activity at 10 µM [1]: 86 ± 16%
- effectiveness against LPS-stimulated TNF production (in words) [1]: much less effective
- activity at 10 µM ([2]; Mus musculus): 47 ± 1%

SMILES: NS(=O)(=O)c1cc(C(=O)O)c(NCc2ccco2)cc1Cl [Furosemide, benzoic acid, 5-(aminosulfonyl)-4-chloro-2-[(2-furanylmethyl)amino]-]
- activity at 10 µM ([2]; Mus musculus): 49 ± 4%
- inhibition at 10 µM ([2]; Mus musculus, RAW264.7): ~49%
- effectiveness against LPS-stimulated TNF production (in words) [2]: comparable to amiloride

SMILES: COC(=O)C1=C(C)NC(C)=C(C(=O)OCCN(C)Cc2ccccc2)C1c1cccc([N+](=O)[O-])c1 (stereo not drawn) [Nicardipine, 3,5-Pyridinedicarboxylic acid, 1,4-dihydro-2,6-dimethyl-4-(3-nitrophenyl)-, methyl 2-[methyl(phenylmethyl)amino]ethyl ester]
- activity at 10 µM [1]: 44 ± 1%
- inhibition at 10 µM [1]: 56%
- activity at 10 µM ([2]; Mus musculus): 59 ± 35%

SMILES: CC(=O)CCCCn1c(=O)c2c(ncn2C)n(C)c1=O [Pentoxifylline, pentoxifylline]
- activity at 10 µM [1]: ≥ 100%
- activity at 10 µM ([2]; Mus musculus): 43 ± 2%
- inhibition at 10 µM ([2]; Mus musculus, RAW264.7): 57%

SMILES: CCCCOc1cc(CC2CNC(=O)N2)ccc1OC (stereo not drawn) [RO 20-1724]
- inhibition at 10 µM [1]: 55%
- TNF LEVEL % Control (LPS alone); Ave. ± S.D. [1]: 45±34 % Control
- IC50 ([2]; Mus musculus, RAW264.7): 1 to 10 nM
- inhibition at 10 µM ([2]; Mus musculus, RAW264.7): 47%
- TNF LEVEL % Control (LPS alone); Ave. ± S.D. [2]: 47±23 % Control

SMILES: COC(=O)C1=C(C)NC(C)=C(C(=O)OC(C)(C)CN(C)CCC(c2ccccc2)c2ccccc2)C1c1cccc([N+](=O)[O-])c1 (stereo not drawn) [Rec 15/2375]
- TNF LEVEL % Control (LPS alone); Ave. ± S.D. [1]: 57±15 % Control
- TNF LEVEL % Control (LPS alone); Ave. ± S.D. [2]: 33± 1 % Control

SMILES: CC(=O)S[C@@H]1CC2=CC(=O)CC[C@]2(C)[C@H]2CC[C@@]3(C)[C@@H](CC[C@@]34CCC(=O)O4)[C@H]12 [Spironolactone, spironolactone]
- activity at 10 µM [1]: 54 ± 8%
- inhibition at 10 µM [1]: 46%
- effectiveness against LPS-stimulated TNF production (in words) [1]: as effective as amiloride

SMILES: NCCCCCCNS(=O)(=O)c1cccc2c(Cl)cccc12 [W-7]
- inhibition at 10 µM [1]: 40 to 50%

SMILES: CCCCNc1cc(C(=O)O)cc(S(N)(=O)=O)c1Oc1ccccc1 [bumetanide]
- effectiveness against LPS-stimulated TNF production (in words) [2]: minimal inhibition

SMILES: Clc1ccc(C(c2ccc(Cl)cc2)n2cc[n+](CC(OCc3ccc(Cl)cc3Cl)c3ccc(Cl)cc3Cl)c2)cc1 (stereo not drawn) [calmidazolium]
- inhibition at 10 µM [1]: 40 to 50%

SMILES: CN(C)c1nc(N)c(C(=O)N=C(N)N)nc1Cl [dimethylamiloride]
- effectiveness against LPS-stimulated TNF production (in words) [2]: same extent of inhibition as amiloride

SMILES: O=C1c2c(O)cccc2Cc2cccc(O)c21 [dithranol]
- inhibition at 10 µM ([2]; Mus musculus, RAW264.7): 67%

SMILES: Fc1ccc(C(c2ccc(F)cc2)N2CCN(C/C=C/c3ccccc3)CC2)cc1 [flunarizine, Peperizine, 1-[bis(4-fluorophenyl)methyl]-4-(3-phenyl-2-propenyl)-, (E)]
- inhibition at 10 µM ([2]; Mus musculus, RAW264.7): 63%

SMILES: COc1ccc2c(c1)CCC(c1ccccc1)=C2c1ccc(OCCN2CCCC2)cc1 [nafoxidine]
- inhibition at 10 µM ([2]; Mus musculus, RAW264.7): ~65%

SMILES: O=c1[nH]c2ccccc2n1C1CCN(CCCC(c2ccc(F)cc2)c2ccc(F)cc2)CC1 [pimozide]
- inhibition at 10 µM ([2]; Mus musculus, RAW264.7): 60 to 70%

SMILES: CC/C(=C(\c1ccccc1)c1ccc(OCCN(C)C)cc1)c1ccccc1 [tamoxifen]
- inhibition at 10 µM ([2]; Mus musculus, RAW264.7): ~65%

SMILES: CSc1ccc2c(c1)N(CCC1CCCCN1C)c1ccccc1S2 (stereo not drawn) [thioridazine]
- inhibition at 10 µM ([2]; Mus musculus, RAW264.7): 60 to 70%
